From patent US8785147B2, “L-threonine analysis method and L-threonine dehydrogenase” (Toyama Prefecture, priority 2010, dated 2014)
Where two headings read alike, the source gives them in different places.

Columns and labels:
[1] = test system: TDH derived from Cupriavidus necator NBRC 102504 (SEQ ID NO: 1) (CnTDH); experiment: Substrate specificity of TDH, standard assay; type: biochemical; conditions: for Activity of the present enzyme on the substrate (in words): substrate 10 mM; for Activity of the enzyme with the coenzyme (in words): as coenzyme
Procedure: L-threonine oxidation activity was determined by measuring coenzyme NAD^+ reduction at 30° C. and 340 nm. The reaction composition consisted of a total volume of 1 mL and contained L-threonine (final concentration 10 mM), NAD^+ (final concentration 2.5 mM), and glycine-KCl—KOH buffer (100 mM, pH 10.0). The measurement of activity began with the addition of the enzyme. One unit (U) of enzymatic activity was defined as the amount of enzyme producing 1 μmol of NADH per minute under standard conditions.
TDH was examined using substrates in the form of various L-amino acids, amino alcohols, and alcohols. […]

[2] = test system: CsTDH: TDH from Clostridium sticklandii; conditions: cited from earlier work
[3] = target: EcTDH: TDH from Escherichia coli K-12 (Escherichia coli, UniProt P07913); conditions: cited from earlier work
EcTDH: TDH from Escherichia coli K-12, sequence (P07913 whole entry): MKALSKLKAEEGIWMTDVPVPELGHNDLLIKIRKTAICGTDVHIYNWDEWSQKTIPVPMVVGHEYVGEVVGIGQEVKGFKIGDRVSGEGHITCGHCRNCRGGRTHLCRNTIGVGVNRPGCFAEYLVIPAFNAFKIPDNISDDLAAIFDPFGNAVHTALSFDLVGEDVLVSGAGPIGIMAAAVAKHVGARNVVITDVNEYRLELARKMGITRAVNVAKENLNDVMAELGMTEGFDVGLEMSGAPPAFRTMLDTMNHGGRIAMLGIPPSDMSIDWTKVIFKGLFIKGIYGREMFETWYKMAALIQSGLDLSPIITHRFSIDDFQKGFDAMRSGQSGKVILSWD

[4] = test system: GdTDH: TDH from chicken liver (Gallus domesticus); conditions: substrate specificity; L-threonine = 100; cited from earlier work
[5] = test system: CyTDH: TDH from Cytophaga sp. KUC-1; conditions: cited from earlier work
[6] = target: PfTDH: TDH from Pyrococcus furiosus (Pyrococcus furiosus, UniProt Q8U259); conditions: cited from earlier work
PfTDH: TDH from Pyrococcus furiosus, sequence (Q8U259 whole entry): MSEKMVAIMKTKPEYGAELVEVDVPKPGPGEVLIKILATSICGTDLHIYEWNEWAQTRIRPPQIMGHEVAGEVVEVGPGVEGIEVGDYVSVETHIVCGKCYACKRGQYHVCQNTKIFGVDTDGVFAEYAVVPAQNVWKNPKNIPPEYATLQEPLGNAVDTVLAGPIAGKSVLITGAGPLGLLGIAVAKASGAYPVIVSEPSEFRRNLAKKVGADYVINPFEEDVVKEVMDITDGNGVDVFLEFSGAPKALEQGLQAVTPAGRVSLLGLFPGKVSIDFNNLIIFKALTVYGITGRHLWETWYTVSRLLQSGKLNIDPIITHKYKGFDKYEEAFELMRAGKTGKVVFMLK

[7] = target: TkTDH (Thermococcus kodakarensis, UniProt Q5JI69); conditions: substrate specificity; L-threonine = 100; cited from earlier work
TkTDH, sequence (Q5JI69 whole entry): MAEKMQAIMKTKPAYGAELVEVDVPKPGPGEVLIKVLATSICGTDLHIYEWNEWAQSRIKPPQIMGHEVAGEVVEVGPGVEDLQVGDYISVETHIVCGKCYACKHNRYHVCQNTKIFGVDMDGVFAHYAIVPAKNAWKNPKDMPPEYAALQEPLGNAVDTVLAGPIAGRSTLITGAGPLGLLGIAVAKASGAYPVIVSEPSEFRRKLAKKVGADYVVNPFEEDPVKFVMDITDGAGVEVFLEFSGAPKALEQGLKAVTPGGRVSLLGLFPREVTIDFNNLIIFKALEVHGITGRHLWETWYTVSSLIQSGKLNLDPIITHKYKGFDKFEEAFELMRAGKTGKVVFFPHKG

[8] = test system: AgTDH: TDH from Arthrobacter globiformis; conditions: substrate specificity; L-threonine = 100; cited from earlier work
[9] = test system: StTDH: TDH from Streptomyces sp. 139; conditions: substrate specificity; L-threonine = 100; cited from earlier work
[10] = substrate concentration 10 mM, standard assay conditions, L-threonine = 100
[11] = substrate specificity, L-threonine = 100

CCC(N)CO (racemic) [DL-2-amino1-butanol]
Relative activity (%) CnTDH [1, 10]: 0%

C[C@H](O)[C@H](N)C(=O)O (racemic) [DL-allothreonine]
Relative activity (%) CsTDH [2, 11]: 0% | Relative activity (%) CnTDH [1, 10]: 0% | Relative activity (%) EcTDH [3, 11]: 95.0% | Relative activity (%) GdTDH [4]: 0%

NC(C(=O)O)C(O)c1ccccc1 (racemic) [DL-threo-3-phenylserine]
Relative activity (%) CyTDH [5, 11]: 0% | Relative activity (%) CsTDH [2, 11]: 0% | Relative activity (%) CnTDH [1, 10]: 0% | Relative activity (%) EcTDH [3, 11]: 3%

C[C@@H](O)[C@H](N)C(=O)O (racemic) [DL-threonine]
Relative activity (%) CnTDH [1, 10]: 64%

CCC(O)C(N)C(=O)O (racemic) [DL-α-amino-β-hydroxyvaleric acid]
Relative activity (%) CyTDH [5, 11]: 31% | Relative activity (%) CsTDH [2, 11]: 20% | Relative activity (%) EcTDH [3, 11]: 71% | Relative activity (%) GdTDH [4]: 0%

CCC(O)CO (centres unmarked) [1,2-Butanediol]
Relative activity (%) CnTDH [1, 10]: 0% | Relative activity (%) PfTDH [6, 11]: 52%

CC(O)CCO (centres unmarked) [1,3-Butanediol]
Relative activity (%) CnTDH [1, 10]: 0% | Relative activity (%) PfTDH [6, 11]: 0%

CCCCO [1-Butanol]
Relative activity (%) CnTDH [1, 10]: 0% | Relative activity (%) PfTDH [6]: 0%

CC(O)C(C)O (centres unmarked) [2,3-Butanediol]
Relative activity (%) CnTDH [1, 10]: 0% | Relative activity (%) PfTDH [6, 11]: 94%

CCC(C)O (centres unmarked) [2-Butanol]
Relative activity (%) CyTDH [5, 11]: 0% | Relative activity (%) CnTDH [1, 10]: 0% | Relative activity (%) PfTDH [6]: 0%

CC(=O)C(C)O (centres unmarked) [Acetoin]
Relative activity (%) CsTDH [2, 11]: 0% | Relative activity (%) CnTDH [1, 10]: 0% | Relative activity (%) PfTDH [6, 11]: 38%

C[C@@H](O)[C@@H](N)C(=O)O [D-allothreonine]
Relative activity (%) CyTDH [5, 11]: 0% | Relative activity (%) CsTDH [2, 11]: 0% | Relative activity (%) CnTDH [1, 10]: 0%

N[C@H](CO)C(=O)O [D-serine]
Relative activity (%) CnTDH [1, 10]: 0%

C[C@H](O)[C@@H](N)C(=O)O [D-threonine]
Relative activity (%) CyTDH [5, 11]: 0% | Relative activity (%) CsTDH [2, 11]: 0% | Activity of the present enzyme on the substrate (in words) ([1]; standard assay conditions): no activity was observed | Relative activity (%) CnTDH [1, 10]: 0% | Relative activity (%) EcTDH [3, 11]: 63.7% | Relative activity (%) PfTDH [6, 11]: 5% | Relative activity (%) GdTDH [4]: 0%

OCC(O)CO [Glycerol]
Relative activity (%) CnTDH [1, 10]: 0% | Relative activity (%) PfTDH [6, 11]: 4%

NCC(=O)O [Glycine]
Relative activity (%) CyTDH [5, 11]: 0% | Relative activity (%) CsTDH [2, 11]: 0% | Relative activity (%) CnTDH [1, 10]: 0% | Relative activity (%) PfTDH [6]: 0%

C[C@H](N)C(=O)O [L-alanine]
Relative activity (%) CyTDH [5, 11]: 0% | Relative activity (%) CsTDH [2, 11]: 0% | Relative activity (%) CnTDH [1, 10]: 0% | Relative activity (%) PfTDH [6, 11]: 0%

N=C(N)NCCC[C@H](N)C(=O)O [L-arginine]
Relative activity (%) CyTDH [5]: 0% | Relative activity (%) CsTDH [2]: 0% | Relative activity (%) CnTDH [1]: 0% | Relative activity (%) PfTDH [6]: 0%

NC(=O)C[C@H](N)C(=O)O [L-asparagine]
Relative activity (%) CyTDH [5, 11]: 0% | Relative activity (%) CsTDH [2, 11]: 0% | Relative activity (%) CnTDH [1, 10]: 0% | Relative activity (%) PfTDH [6, 11]: 0%

N[C@@H](CC(=O)O)C(=O)O [L-aspartic acid]
Relative activity (%) CyTDH [5, 11]: 0% | Relative activity (%) CsTDH [2, 11]: 0% | Relative activity (%) CnTDH [1, 10]: 0% | Relative activity (%) PfTDH [6, 11]: 0%

N[C@@H](CCC(=O)O)C(=O)O [L-glutamic acid]
Relative activity (%) CyTDH [5, 11]: 0% | Relative activity (%) CsTDH [2, 11]: 0% | Relative activity (%) CnTDH [1, 10]: 0% | Relative activity (%) PfTDH [6, 11]: 0%

NC(=O)CC[C@H](N)C(=O)O [L-glutamine]
Relative activity (%) CyTDH [5, 11]: 0% | Relative activity (%) CsTDH [2, 11]: 0% | Relative activity (%) CnTDH [1, 10]: 0% | Relative activity (%) PfTDH [6, 11]: 0%

N[C@@H](Cc1c[nH]cn1)C(=O)O [L-histidine]
Relative activity (%) CyTDH [5, 11]: 0% | Relative activity (%) CsTDH [2, 11]: 0% | Relative activity (%) CnTDH [1, 10]: 0% | Relative activity (%) PfTDH [6, 11]: 0%

CC[C@H](C)[C@H](N)C(=O)O [L-isoleucine]
Relative activity (%) CyTDH [5, 11]: 0% | Relative activity (%) CsTDH [2, 11]: 0% | Relative activity (%) CnTDH [1, 10]: 0% | Relative activity (%) PfTDH [6, 11]: 0%

NCCCC[C@H](N)C(=O)O [L-lysine]
Relative activity (%) CyTDH [5, 11]: 0% | Relative activity (%) CsTDH [2, 11]: 0% | Relative activity (%) CnTDH [1, 10]: 0% | Relative activity (%) PfTDH [6, 11]: 0%

CSCC[C@H](N)C(=O)O [L-methionine]
Relative activity (%) CyTDH [5, 11]: 0% | Relative activity (%) CsTDH [2, 11]: 0% | Relative activity (%) CnTDH [1, 10]: 0% | Relative activity (%) PfTDH [6]: 0%

NCCC[C@H](N)C(=O)O [L-ornithine]
Relative activity (%) CnTDH [1, 10]: 0% | Relative activity (%) PfTDH [6]: 0%

N[C@@H](Cc1ccccc1)C(=O)O [L-phenylalanine]
Relative activity (%) CyTDH [5, 11]: 0% | Relative activity (%) CsTDH [2, 11]: 0% | Relative activity (%) CnTDH [1, 10]: 0% | Relative activity (%) PfTDH [6, 11]: 0%

O=C(O)[C@@H]1CCCN1 [L-proline]
Relative activity (%) CyTDH [5, 11]: 0% | Relative activity (%) CsTDH [2, 11]: 0% | Relative activity (%) CnTDH [1, 10]: 0% | Relative activity (%) PfTDH [6]: 0%

N[C@@H](CO)C(=O)O [L-serine]
Relative activity (%) CyTDH [5, 11]: 0% | Relative activity (%) CsTDH [2, 11]: 0% | Relative activity (%) TkTDH [7]: 13% | Relative activity (%) CnTDH ([1]; substrate 100 mM): 0% | Relative activity (%) CnTDH [1, 10]: 0% | Relative activity (%) EcTDH [3, 11]: 4.0% | Relative activity (%) PfTDH [6, 11]: 15% | Relative activity (%) GdTDH [4]: 0%

C[C@@H](O)[C@H](N)C(N)=O [L-threonine amide]
Relative activity (%) CsTDH [2, 11]: 0% | Relative activity (%) CnTDH [1, 10]: 0% | Relative activity (%) EcTDH [3]: 98%

C[C@@H](O)[C@H](N)C(=O)O [L-threonine hydroxide]
Relative activity (%) CsTDH [2, 11]: 0% | Relative activity (%) CnTDH [1, 10]: 0% | Relative activity (%) EcTDH [3, 11]: 25%

COC(=O)[C@@H](N)[C@@H](C)O [L-threonine methyl ester]
Relative activity (%) CsTDH [2, 11]: 0% | Relative activity (%) CnTDH [1, 10]: 0% | Relative activity (%) EcTDH [3, 11]: 27%

C[C@@H](O)[C@H](N)C(=O)O [L-threonine]
Relative activity (%) CyTDH [5, 11]: 100% | Relative activity (%) AgTDH [8]: 100% | Relative activity (%) StTDH [9]: 100% | Relative activity (%) CsTDH [2, 11]: 100% | Relative activity (%) TkTDH [7]: 100% | Activity of the present enzyme on the substrate (in words) ([1]; standard assay conditions): exhibited the activity for only L-threonine | Relative activity (%) CnTDH [1, 10]: 100% | Relative activity (%) EcTDH [3, 11]: 100.0% | Relative activity (%) PfTDH [6, 11]: 100% | Relative activity (%) GdTDH [4]: 100%

N[C@@H](Cc1c[nH]c2ccccc12)C(=O)O [L-tryptophan]
Relative activity (%) CyTDH [5, 11]: 0% | Relative activity (%) CsTDH [2, 11]: 0% | Relative activity (%) CnTDH [1, 10]: 0% | Relative activity (%) PfTDH [6, 11]: 0%

N[C@@H](Cc1ccc(O)cc1)C(=O)O [L-tyrosine]
Relative activity (%) CyTDH [5, 11]: 0% | Relative activity (%) CsTDH [2, 11]: 0% | Relative activity (%) CnTDH [1, 10]: 0% | Relative activity (%) PfTDH [6, 11]: 0%

CC(C)[C@H](N)C(=O)O [L-valine]
Relative activity (%) CyTDH [5, 11]: 0% | Relative activity (%) CsTDH [2, 11]: 0% | Relative activity (%) CnTDH [1, 10]: 0% | Relative activity (%) PfTDH [6, 11]: 0%

NC(=O)c1ccc[n+]([C@@H]2O[C@H](COP(=O)([O-])OP(=O)(O)OC[C@H]3O[C@@H](n4cnc5c(N)ncnc54)[C@H](OP(=O)(O)O)[C@@H]3O)[C@@H](O)[C@H]2O)c1 [NADP^+]
Activity of the enzyme with the coenzyme (in words) [1]: No activity of the enzyme was observed

NC(=O)c1ccc[n+]([C@@H]2O[C@H](COP(=O)([O-])OP(=O)(O)OC[C@H]3O[C@@H](n4cnc5c(N)ncnc54)[C@H](O)[C@@H]3O)[C@@H](O)[C@H]2O)c1 [NAD^+, nicotinamide adenine dinucleotide]
Activity of the enzyme with the coenzyme (in words) [1]: showed the activity

NCCS(=O)(=O)O [Taurine]
Relative activity (%) CnTDH [1, 10]: 0%
